The source of these data is patent US20080167532A1, “ASSESSING CANCER TREATMENT RESPONSIVENESS” (Mayo Foundation for Medical Education and Research, priority 2006, published 2008).

Entries after “also recorded” stand apart in the source; their conditions may differ.

Assay [1] concerns DRO cells. Put plainly: DRO cell proliferation (cell counts over six days). The assay is classed as cell-based, human. The conditions noted are these: DRO cells treated every 48 hours over six days; read-out: IC50, concentration at which 50% of cell proliferation was inhibited. As to the method: . Cells were treated every 48 hours over six days. Cell numbers were counted and data were plotted as mean values ±S.D. The thiazolidinediones inhibited cell proliferation of DRO cells in a dose responsive fashion (FIG. 3B). […]. The EC50 concentrations were in close agreement with the IC50 concentrations for each compound (FIG. 3B).
. […] Cell numbers were counted and data were plotted as mean values ±S.D. (FIG. 9D).
DRO90-1 (DRO) and ARO81 (ARO) cells were derived from primary cultures of human anaplastic thyroid carcinoma tumors that were obtained from Dr. G. J. Juillard (University of California-Los Angeles, Los Angeles, Calif.), and KTC-2 and KTC3 cells were obtained from Dr. Junichi Kurebayashi (Podtcheko et al., J. Clin. Endocrinol. Metab., 88:1889-1896 (2003) and Pushkarev et al., Molecular mechanisms of the Effects of Low Concentrations of Taxol in Anaplastic Thyroid Cancer Cells. Endocrinology: en. 2004-0127 (2004)). Cells were cultured in RPMI 1640 medium (Cellgro, Herndon Va.) supplemented with 10% charcoal-stripped fetal bovine serum (Hyclone), non-essential amino acids, sodium pyruvate, and penicillin-streptomycin-amphotericin B at 37° C. in a humidified atmosphere with 5% CO^2. Charcoal-stripped serum was used to exclude endogenous PPAR ligands contained in serum. For proliferation studies, cells were plated in triplicate in 12-well culture plates at initial concentrations of 2×10^4 cells/well. After overnight incubation, cells were treated with 10 nM RS5444 or DMSO diluent (Sigma) for 6 days with medium, and drug changed every 48 hours. After 6 days, cells were washed with PBS (Cellgro), trypsinized, and counted by Beckman Coulter Counter (Beckman Instruments, Fullerton Calif.). […]. Cells were treated with either DMSO or 10 nM RS5444 (24 hours). After treatment, phase images were obtained on an inverted microscope. For real time PCR studies, cells were plated in 60 mm plates at 50% confluence and treated with 10 nM RS5444 for indicated incubation periods. […].
Cells were either plated in triplicate at 7.5×10^4 cells/mL in 6-well plates or 2×10^4 cells/well in 12-well plates, allowed to adhere overnight, and then transfected for 24 to 72 hours with 2 to 5 μg of either scrambled, p21^WAF1/CIP1 (1022539), RhoB (SI00058933) or PPAR-γ-specific siRNA duplexes (Qiagen Valencia, Calif.) using RNAiFect reagent (Qiagen). The DNA target sequence for PPAR-γ was 5′-[…]-3′. After transfection, cells in the 6-well plates were treated with either DMSO diluent or 10 nM RS5444 for 24 hours and then analyzed by either real time PCR or immunoblotting. Cells in the 12-well plates were exposed for 6 days with medium, and drug changed every 48 hours. After 6 days, cells were washed with PBS (Cellgro), trypsinized, and counted by Beckman Coulter Counter.

The test system of assay [2] is DRO cells. Put plainly: Western blot of RhoB, RhoA, p21, cyclin E polypeptides in DRO cells. The format is cell-based, human. As to the method:
RhoB and p21^WAF1/CIP1 polypeptide expression also was examined in ATC cells to determine the time course of induction of each polypeptide following stimulation with a PPARγ agonist (FIG. 6). […]. Polypeptide lysates were prepared and examined for RhoB, RhoA and β-actin expression. […]; FIG. 6A).
The time course for induction of RhoB and p21^WAF1/CIP1 was determined using Western blotting.
DRO90-1 (DRO) and ARO81 (ARO) cells were derived from primary cultures of human anaplastic thyroid carcinoma tumors that were obtained from Dr. G. J. Juillard (University of California-Los Angeles, Los Angeles, Calif.), and KTC-2 and KTC3 cells were obtained from Dr. Junichi Kurebayashi (Podtcheko et al., J. Clin. Endocrinol. Metab., 88:1889-1896 (2003) and Pushkarev et al., Molecular mechanisms of the Effects of Low Concentrations of Taxol in Anaplastic Thyroid Cancer Cells. Endocrinology: en. 2004-0127 (2004)). Cells were cultured in RPMI 1640 medium (Cellgro, Herndon Va.) supplemented with 10% charcoal-stripped fetal bovine serum (Hyclone), non-essential amino acids, sodium pyruvate, and penicillin-streptomycin-amphotericin B at 37° C. in a humidified atmosphere with 5% CO^2. Charcoal-stripped serum was used to exclude endogenous PPAR ligands contained in serum. For proliferation studies, cells were plated in triplicate in 12-well culture plates at initial concentrations of 2×10^4 cells/well. After overnight incubation, cells were treated with 10 nM RS5444 or DMSO diluent (Sigma) for 6 days with medium, and drug changed every 48 hours. After 6 days, cells were washed with PBS (Cellgro), trypsinized, and counted by Beckman Coulter Counter (Beckman Instruments, Fullerton Calif.). For morphology studies, cells were plated in 12 well plates at initial concentrations of 2.5×10^4 cells/well. Cells were treated with either DMSO or 10 nM RS5444 (24 hours). After treatment, phase images were obtained on an inverted microscope. For real time PCR studies, cells were plated in 60 mm plates at 50% confluence and treated with 10 nM RS5444 for indicated incubation periods. […].
Cells were collected and lysed in RIPA buffer containing 50 mM Tris, 5 mM EDTA, 150 mM NaCl, 0.1% SDS, 0.5% Deoxycholate, 1% NP40, and protease inhibitor cocktail (Roche) followed by centrifugation. Excised tumor tissues were lysed in 50 mM Tris pH 8.0+1% SDS. Collected supernatants were, analyzed for protein concentration using Pierce's BCA assay, with 25 μg protein loaded per gel lane (Invitrogen) with later transfer to Immobilon-P membranes. The membranes were hybridized with antibodies (Santa Cruz, Cell Signaling, Sigma-Aldrich, St. Louis Mo.) as indicated overnight at 4° C. followed by treatment with species-specific horseradish peroxidase IgG (Jackson labs) for 45 minutes at room temperature. Detection was performed using Supersignal West Pico chemoluminescence kit (Pierce). Quantification of bands was performed in triplicate using Image Quant 5.2 (Molecular Dynamics, Sunnyvale Calif.).
(In general: A western blot detects proteins with antibodies after separation by electrophoresis.)

As for `Cc1cc(Oc2ccc3nc(COc4ccc(CC5SC(=O)NC5=O)cc4)n(C)c3c2)cc(C)c1N` (stereo not shown) [RS5444], the IC50 with DRO cells [1] is ~0.8 nM. The “RhoA polypeptide expression (Western blot)” value in the assay on DRO cells [2] (10 nM RS5444) is recorded as “no change in RhoA polypeptide expression; also recorded: no change in RhoA polypeptide levels”. The “Cyclin E levels (Western blot)” value in the assay with DRO cells [2] (10 nM, at 24 hours, not at earlier time points) was “down-regulated”. Also, in the assay with DRO cells [2] (10 nM, up to 24 hours), the “RhoB polypeptide level, time course (Western blot)” value was “significantly elevated at 6 hours” and the “p21WAF1/CIP1 polypeptide level, time course (Western blot)” value was “significantly elevated at 6 hours”. Besides, the “RhoB polypeptide levels (Western blot)” value with DRO cells [2] (24 hours after single treatment, 10 nM RS5444, 100 nM rosiglitazone, 1 μM troglitazone) is given as “induced most strongly; also recorded: induced RhoB polypeptide levels”. Besides, the “RhoB and p21 expression (Western blot)” value in the assay on DRO cells [2] (24 hours, 10 nM RS5444, 1 ng/mL FK-228, 10 μM FTI-277) is “upregulation of both RhoB and p21 expression”.
